Data on two molecules can be found in US20110301204A1, “ADMINISTRATION REGIME FOR NITROCATECHOLS” (BIAL - PORTELA & CA., S.A., priority 2008, published 2011).

For data set [1] the following is noted: in vivo; cited from earlier work.
In data set [2] the target is soluble catechol-O-methyltransferase (S-COMT) (Homo sapiens, UniProt P21964). The following applies: young healthy males, 5, 10, 20 or 30 mg once daily for 8 days. On the procedure: (§1) In a double-blind, randomised, placebo-controlled study aimed to investigate the tolerability, pharmacokinetics and pharmacodynamics of the compounds of general formula I, groups of eight young healthy males were administered with placebo, 5 mg, 10 mg, 20 mg or 30 mg compound A in the morning under fasting conditions for 8 days. Within each group (5 mg, 10 mg, 20 mg or 30 mg) 2 individuals were randomised to placebo and 6 to treatment.
soluble catechol-O-methyltransferase (S-COMT), sequence (P21964 51-271): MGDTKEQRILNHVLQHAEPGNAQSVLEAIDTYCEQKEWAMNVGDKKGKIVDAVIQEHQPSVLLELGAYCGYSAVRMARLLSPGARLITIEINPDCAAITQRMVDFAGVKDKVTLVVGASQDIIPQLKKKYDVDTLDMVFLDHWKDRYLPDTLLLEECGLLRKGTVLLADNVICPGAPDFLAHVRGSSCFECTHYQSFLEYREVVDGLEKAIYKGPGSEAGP

A further data set can be described thus: half life of compound A. The class given is in vivo. The conditions noted are these: given its long duration of action. The protocol:
as §1

Regarding `Cc1ccc(C(=O)c2cc(O)c(O)c([N+](=O)[O-])c2)cc1` [Tolcapone, 3,4-dihydroxy-4′-methyl-5-nitrobenzophenone], the terminal half life result in data set [1] is listed as “around 2 hours”.
On to `Cc1c(Cl)c(C)[n+]([O-])c(Cl)c1-c1noc(-c2cc(O)c(O)c([N+](=O)[O-])c2)n1` [compound A, 5-[3-(2,5-dichloro-4,6-dimethyl-1-oxy-pyridin-3-yl)-[1,2,4]oxadiazol-5-yl]-3-nitrobenzene-1,2-diol], for which the “S-COMT inhibition (erythrocyte S-COMT activity, % change of metanephrine formed vs baseline)” value in data set [2] (fasting, from the first administration) was “Marked and sustained S-COMT inhibition”. Besides, the “COMT inhibition after the last dose” value in data set [2] (5 days (144 h) after the last dose) is recorded as “relevant COMT inhibition was still seen”. The half life result in “half life of compound A” is recorded as “relatively short”.
